This test deals with JAK1 (Homo sapiens (Human), UniProt P23458). In words: Analysis of JAK1 activity inhibition ability (ADP-Glo Kinase Assay). In kind it is biochemical. To be noted: JAK1 enzyme, ADP-Glo luminescence, ATP 250 uM, IRS-itide substrate, 30° C. 40 minutes; read-out: IC50. On the procedure:
Test Example 1: Analysis of JAK1 Activity Inhibition Ability of Compound of Formula 1 (ADP-Glo™ Kinase Assay)
A JAK inhibition ability of a compound according to the present invention was identified as follows.
A control material and a test material were prepared for each concentration, in such a way that they were diluted by means of DMSO. At the same time, ATP (250 uM) and JAK substrate (JAK1, IRS-itide 40 ng/mL) were prepared, in such a way that they were diluted by means of kinase buffer (40 mM Tris-HCl pH 7.5, 20 mM MgCl2, 0.5 mg/mL BSA, 50 uM DTT).
A test drug for each concentration, substrate, ATP and JAK enzyme were mixed in an eppendorf tube, and reacted in a 30° C. incubator for 40 minutes.
ADP-Glo™ reagent contained in ADP-Glo™ Kinase Enzyme System (Promega, USA, V9571) was added into each eppendorf tube, and reacted in a 30° C. incubator for 40 minutes. A kinase detection reagent contained in ADP-Go™ Kinase Enzyme System was inserted into the eppendorf tube, then an integration time was set to 1 second by using Wallac Victor 2™, then luminescence was measured, and then JAKs phosphorylation inhibition ability of the test material was analyzed. The concentration of the compound, which causes 50% of the JAK enzyme activity inhibition in comparison With the control group, was determined as IC50 (nM) of an inhibitor, wherein the results thereof are shown in a following table 1.
On the technique in general: ADP-Glo first removes unused ATP, then detects ADP through luciferase.

Chain of JAK1 (P23458 whole entry): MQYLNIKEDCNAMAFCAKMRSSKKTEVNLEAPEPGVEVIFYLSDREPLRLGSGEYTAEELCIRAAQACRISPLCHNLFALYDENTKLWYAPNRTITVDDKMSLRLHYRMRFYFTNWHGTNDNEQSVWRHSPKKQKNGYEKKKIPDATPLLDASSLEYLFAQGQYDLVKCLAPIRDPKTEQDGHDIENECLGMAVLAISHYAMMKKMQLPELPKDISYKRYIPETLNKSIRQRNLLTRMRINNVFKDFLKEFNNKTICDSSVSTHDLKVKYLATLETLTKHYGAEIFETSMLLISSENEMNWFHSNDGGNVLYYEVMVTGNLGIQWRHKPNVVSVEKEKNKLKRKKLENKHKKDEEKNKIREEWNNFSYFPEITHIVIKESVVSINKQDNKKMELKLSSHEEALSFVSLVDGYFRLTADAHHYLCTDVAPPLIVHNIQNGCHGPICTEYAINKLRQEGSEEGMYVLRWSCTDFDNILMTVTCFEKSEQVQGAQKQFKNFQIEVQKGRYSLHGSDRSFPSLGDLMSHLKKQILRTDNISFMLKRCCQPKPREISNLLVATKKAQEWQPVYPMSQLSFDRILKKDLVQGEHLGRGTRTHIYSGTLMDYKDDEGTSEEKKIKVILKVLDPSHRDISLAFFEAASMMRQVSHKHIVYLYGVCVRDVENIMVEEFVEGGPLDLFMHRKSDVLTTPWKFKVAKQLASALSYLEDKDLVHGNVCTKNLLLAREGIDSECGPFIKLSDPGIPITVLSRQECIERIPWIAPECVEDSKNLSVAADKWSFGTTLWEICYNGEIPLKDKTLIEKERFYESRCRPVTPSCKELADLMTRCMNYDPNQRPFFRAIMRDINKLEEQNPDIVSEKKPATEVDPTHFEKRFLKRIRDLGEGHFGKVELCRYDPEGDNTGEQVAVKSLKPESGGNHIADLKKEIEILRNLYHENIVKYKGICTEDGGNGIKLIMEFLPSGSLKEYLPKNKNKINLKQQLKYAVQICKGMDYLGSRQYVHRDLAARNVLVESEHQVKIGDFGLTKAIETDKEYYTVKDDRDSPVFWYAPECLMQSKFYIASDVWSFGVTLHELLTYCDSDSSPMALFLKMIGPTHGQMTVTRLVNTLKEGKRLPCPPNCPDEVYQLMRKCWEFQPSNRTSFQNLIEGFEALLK

In general, IC50 refers to the concentration that gives 50% inhibition. Regarding `CSc1ccc(S(=O)(=O)Nc2ccc(-c3cc(NC(=O)C4CC4)nc4[nH]ccc34)cc2)cc1` [Example 28, N-(4-(4-((4-(methylthio)phenyl)sulfonamido)phenyl)-1H-pyrrolo[2,3-b]pyridin-6-yl)cyclopropanecarboxamide], the IC50 fell in the range of 20 to 200 nM. In the case of `CCS(=O)(=O)Nc1ccc(-c2cc(NC(=O)C3CC3)nc3[nH]ccc23)c(C)c1` [Example 29, N-(4-(4-(ethylsulfonamido)-2-methylphenyl)-1H-pyrrolo[2,3-b]pyridin-6-yl)cyclopropanecarboxamide], the IC50 is < 20 nM.

Take `CCS(=O)(=O)Nc1ccc(-c2cc(NC(=O)C3CC3)nc3[nH]ccc23)c(F)c1` [Example 30, N-(4-(4-(ethylsulfonamido)-2-fluorophenyl)-1H-pyrrolo[2,3-b]pyridin-6-yl)cyclopropanecarboxamide]: the IC50 was < 20 nM. For `O=C(Nc1cc(-c2ccc(NS(=O)(=O)c3ccc(Br)c(F)c3)cc2)c2cc[nH]c2n1)C1CC1` [Example 31, N-(4-(4-((4-bromo-3-fluorophenyl)sulfonamido)phenyl)-1H-pyrrolo[2,3-b]pyridin-6-yl)cyclopropanecarboxamide], the IC50 is 20 to 200 nM. Regarding `O=C(Nc1cc(-c2ccc(NS(=O)(=O)c3ccc(Br)cc3F)cc2)c2cc[nH]c2n1)C1CC1` [Example 32, N-(4-(4-((4-bromo-2-fluorophenyl)sulfonamido)phenyl)-1H-pyrrolo[2,3-b]pyridin-6-yl)cyclopropanecarboxamide], the IC50 fell in the range of 20 to 200 nM.

On to `O=C(Nc1cc(-c2ccc(NS(=O)(=O)c3ccc(Cl)c(C(F)(F)F)c3)cc2)c2cc[nH]c2n1)C1CC1` [Example 33, N-(4-(4-((4-chloro-3-(trifluoromethyl)phenyl)sulfonamido)phenyl)-1H-pyrrolo[2,3-b]pyridin-6-yl)cyclopropanecarboxamide], for which the IC50 was in the range of 20 to 200 nM.

For `O=C(Nc1cc(-c2ccc(NS(=O)(=O)c3ccc4c(c3)OCO4)cc2)c2cc[nH]c2n1)C1CC1` [Example 34, N-(4-(4-(benzo[d][1,3]dioxole-5-sulfonamido)phenyl)-1H-pyrrolo[2,3-b]pyridin-6-yl)cyclopropanecarboxamide], the IC50 was < 20 nM. For the compound `CCS(=O)(=O)Nc1ccc(-c2cc(NC(=O)C3CC3C)nc3[nH]ccc23)cc1` (stereo not drawn) [Example 35, N-(4-(4-(ethylsulfonamido)phenyl)-1H-pyrrolo[2,3-b]pyridin-6-yl)-2-methylcyclopropane-1-carboxamide], the half-inhibitory concentration (IC50) is < 20 nM.

Consider `O=C(Nc1cc(-c2ccc(NS(=O)(=O)Cc3ccc(F)cc3)cc2)c2cc[nH]c2n1)C1CC1` [Example 36, N-(4-(4-(((4-fluorophenyl)methyl)sulfonamido)phenyl)-1H-pyrrolo[2,3-b]pyridin-6-yl)cyclopropanecarboxamide], for which the IC50 is < 20 nM.

For the compound `CN(C)S(=O)(=O)c1ccc(S(=O)(=O)Nc2ccc(-c3cc(NC(=O)C4CC4)nc4[nH]ccc34)cc2)cc1` [Example 37, N-(4-(4-((4-(N,N-dimethylsulfamoyl)phenyl)sulfonamido)phenyl)-1H-pyrrolo[2,3-b]pyridin-6-yl)cyclopropanecarboxamide], the IC50 lay in the range of 20 to 200 nM.

For `O=C(Nc1cc(-c2ccc(NS(=O)(=O)c3ccc4c(c3)OCCO4)cc2)c2cc[nH]c2n1)C1CC1` [Example 38, N-(4-(4-((2,3-dihydrobenzo[b][1,4]dioxine)-6-sulfonamido)phenyl)-1H-pyrrolo[2,3-b]pyridin-6-yl)cyclopropanecarboxamide], the IC50 was in the range of 20 to 200 nM. Take `O=C(Nc1cc(-c2ccc(NS(=O)(=O)c3ccc(-n4cnnn4)cc3)cc2)c2cc[nH]c2n1)C1CC1` [Example 39, N-(4-(4-((4-(1H-tetrazol-1-yl)phenyl)sulfonamido)phenyl)-1H-pyrrolo[2,3-b]pyridin-6-yl)cyclopropanecarboxamide]: the IC50 lay in the range of 20 to 200 nM.

Consider `N#Cc1ccc(S(=O)(=O)Nc2ccc(-c3cc(NC(=O)C4CC4)nc4[nH]ccc34)cc2)cn1` [Example 40, N-(4-(4-((6-cyanopyridine)-3-sulfonamido)phenyl)-1H-pyrrolo[2,3-b]pyridin-6-yl)cyclopropanecarboxamide], for which the IC50 was 20 to 200 nM. In the case of `CC(C)S(=O)(=O)Nc1ccc(-c2cc(NC(=O)C3CC3)nc3[nH]ccc23)cc1` [Example 41, N-(4-(4-((1-methylethyl)sulfonamido)phenyl)-1H-pyrrolo[2,3-b]pyridin-6-yl)cyclopropanecarboxamide], the IC50 was < 20 nM. `CCC(CC)S(=O)(=O)Nc1ccc(-c2cc(NC(=O)C3CC3)nc3[nH]ccc23)cc1` [Example 42, N-(4-(4-((1-ethylpropyl)sulfonamido)phenyl)-1H-pyrrolo[2,3-b]pyridin-6-yl)cyclopropanecarboxamide]: the IC50 is < 20 nM. On to `CC(C)CS(=O)(=O)Nc1ccc(-c2cc(NC(=O)C3CC3)nc3[nH]ccc23)cc1` [Example 43, N-(4-(4-((2-methylpropyl)sulfonamido)phenyl)-1H-pyrrolo[2,3-b]pyridin-6-yl)cyclopropanecarboxamide], for which the IC50 is < 20 nM. As to `CC(C)(C)CS(=O)(=O)Nc1ccc(-c2cc(NC(=O)C3CC3)nc3[nH]ccc23)cc1` [Example 44, N-(4-(4-((2,2-dimethylpropyl)sulfonamido)phenyl)-1H-pyrrolo[2,3-b]pyridin-6-yl)cyclopropanecarboxamide], the IC50 was < 20 nM. The figure for `CC(C)CCS(=O)(=O)Nc1ccc(-c2cc(NC(=O)C3CC3)nc3[nH]ccc23)cc1` [Example 45, N-(4-(4-((3-methylbutyl)sulfonamido)phenyl)-1H-pyrrolo[2,3-b]pyridin-6-yl)cyclopropanecarboxamide] is < 20 nM; for `O=C(Nc1cc(-c2ccc(NS(=O)(=O)CC3CC3)cc2)c2cc[nH]c2n1)C1CC1` [Example 46, N-(4-(4-((cyclopropylmethyl)sulfonamido)phenyl)-1H-pyrrolo[2,3-b]pyridin-6-yl)cyclopropanecarboxamide] it is < 20 nM; for `O=C(Nc1cc(-c2ccc(NS(=O)(=O)CC3CCCCC3)cc2)c2cc[nH]c2n1)C1CC1` [Example 47, N-(4-(4-((cyclohexylmethyl)sulfonamido)phenyl)-1H-pyrrolo[2,3-b]pyridin-6-yl)cyclopropanecarboxamide] it is < 20 nM.

Regarding `C=CCS(=O)(=O)Nc1ccc(-c2cc(NC(=O)C3CC3)nc3[nH]ccc23)cc1` [Example 48, N-(4-(4-(allylsulfonamido)phenyl)-1H-pyrrolo[2,3-b]pyridin-6-yl)cyclopropanecarboxamide], the IC50 was < 20 nM.

With `O=C(Nc1cc(-c2ccc(NS(=O)(=O)CF)cc2)c2cc[nH]c2n1)C1CC1` [Example 49, N-(4-(4-((fluoromethyl)sulfonamido)phenyl)-1H-pyrrolo[2,3-b]pyridin-6-yl)cyclopropanecarboxamide], the IC50 was 20 to 200 nM.

As for `O=C(Nc1cc(-c2ccc(NS(=O)(=O)C(F)F)cc2)c2cc[nH]c2n1)C1CC1` [Example 50, N-(4-(4-((difluoromethyl)sulfonamido)phenyl)-1H-pyrrolo[2,3-b]pyridin-6-yl)cyclopropanecarboxamide], the IC50 fell in the range of 20 to 200 nM. In the case of `O=C(Nc1cc(-c2ccc(NS(=O)(=O)CC(F)F)cc2)c2cc[nH]c2n1)C1CC1` [Example 51, N-(4-(4-((2,2-difluoroethyl)sulfonamido)phenyl)-1H-pyrrolo[2,3-b]pyridin-6-yl)cyclopropanecarboxamide] it was 20 to 200 nM; in that of `N#CCCCS(=O)(=O)Nc1ccc(-c2cc(NC(=O)C3CC3)nc3[nH]ccc23)cc1` [Example 52, N-(4-(4-((3-cyanopropyl)sulfonamido)phenyl)-1H-pyrrolo[2,3-b]pyridin-6-yl)cyclopropanecarboxamide], < 20 nM; in that of `CCOCCS(=O)(=O)Nc1ccc(-c2cc(NC(=O)C3CC3)nc3[nH]ccc23)cc1` [Example 53, N-(4-(4-((2-ethoxyethyl)sulfonamido)phenyl)-1H-pyrrolo[2,3-b]pyridin-6-yl)cyclopropanecarboxamide], 20 to 200 nM.

In the case of `O=C(Nc1cc(-c2ccc(NS(=O)(=O)CC3CCOC3)cc2)c2cc[nH]c2n1)C1CC1` (stereo not drawn) [Example 54, N-(4-(4-(((tetrahydrofuran-3-yl)methyl)sulfonamido)phenyl)-1H-pyrrolo[2,3-b]pyridin-6-yl)cyclopropanecarboxamide], the IC50 is < 20 nM.

For `O=C(Nc1cc(-c2ccc(NS(=O)(=O)CC3CCOCC3)cc2)c2cc[nH]c2n1)C1CC1` [Example 55, N-(4-(4-(((tetrahydro-2H-pyran-4-yl)methyl)sulfonamido)phenyl)-1H-pyrrolo[2,3-b]pyridin-6-yl)cyclopropanecarboxamide], the IC50 is < 20 nM. For the compound `CS(=O)(=O)CCS(=O)(=O)Nc1ccc(-c2cc(NC(=O)C3CC3)nc3[nH]ccc23)cc1` [Example 56, N-(4-(4-((2-(methylsulfonyl)ethyl)sulfonamido)phenyl)-1H-pyrrolo[2,3-b]pyridin-6-yl)cyclopropanecarboxamide], the IC50 is < 20 nM.

As to `O=C(Nc1cc(-c2ccc(NS(=O)(=O)C3CC3)cc2)c2cc[nH]c2n1)C1CC1` [Example 57, N-(4-(4-(cyclopropanesulfonamido)phenyl)-1H-pyrrolo[2,3-b]pyridin-6-yl)cyclopropanecarboxamide], the IC50 was < 20 nM.

For the origin of these results see US11524968B2, “Heterocyclic compound as a protein kinase inhibitor” (HK inno.N Corporation, priority 2017, dated 2022).
